Results: patent publication US20050148673A1, “Prolonged administration of NMDA antagonist and safener drug to alter neuropathic pain condition” (priority 2002, published 2005)

Key:
[1] = system: patients with CRPS-Type 1 (RSD) neuropathic pain; assay: Prolonged continuous intravenous ketamine infusion with clonidine and MgSO4 in U.S. patients with CRPS-Type 1 (RSD); assay type: in vivo, human
Description: Roughly 2 hours before ketamine infusion begins, the patient should be given an oral dose of a “safener drug” that can reduce or eliminate the risks of any neurotoxic side effects that might otherwise be caused by continuous prolonged administration of the ketamine. […] As an additional benefit, clonidine (and various other alpha-2 adrenergic agonist drugs) can also help reduce blood pressure. This is useful, when used in conjunction with ketamine, since elevated blood pressure can be a side effect of ketamine, due to certain activities involving the sympathetic nervous system and the release of catecholamines.
In the treatments disclosed herein, clonidine tablets containing 0.1 or 0.2 mg were administered orally, every 8 to 12 hours, with good results. […] The transdermal form of clonidine (i.e., using skin patches) has also been used, with good results.
Beginning roughly 2 hours before the ketamine infusion is commenced (this can be done conveniently at the same time when the first clonidine tablet is taken), the patient should also be administered magnesium, preferably by intravenous infusion of a water-soluble salt, such as magnesium sulfate or chloride. This can be done by dissolving 2 grams of MgSO4 in 250 milliliters of 5% dextrose in water (abbreviated as D5W) and infusing the liquid into the patient over a period of about 2 hours.
A second infusion of 2 grams of MgSO4 should be administered roughly 24 hours later. This can be repeated each day, if desired, if the patient has not yet achieved complete cessation of the chronic pain; however, in the treatments completed to date, it has never been provided more than 3 times.
As soon as the initial magnesium infusion (which takes about 2 hours) has been completed, the patient is ready for the ketamine infusion to begin. In the treatments described herein, since these were done without being able to rapidly determine ketamine concentrations in blood, each patient was individually “titered”, by testing a series of gradually increasing dosages until a “maximum tolerated dosage” was reached and determined.
This typically was done by starting each patient at an initial dosage of 10 mg per hour, and then evaluating the patient every 2 hours after that, to see whether the dosage should be increased by another 5 or 10 mg/hr. When a patient began showing or reporting substantial CNS effects (such as feeling drunk, slurring of speech, semi-hallucinatory thoughts or visions, etc.), it was presumed that the maximum tolerated dosage had been reached or slightly passed, and the dosage was decreased slightly (such as by 5 or 10 mg/hr, depending on how well the reported pain levels were decreasing).
Four other patients who had suffering from CRPS type 1 for at least two years were subsequently treated in the U.S. Because of patient privacy concerns, the details of their condition cannot be disclosed herein. Typical treatments for these patients commenced with 2 grams of MgSO4 (infused in 5% dextrose in water, or D5W) and 1 or 2 tablets of 0.1 mg clonidine, two or three times per day as tolerated, commencing at least an hour prior to the first ketamine infusion. Throughout the treatment, patients continued to receive 1 or 2 tablets of clonidine 2 to 3 times per day, as tolerated, and a second magnesium infusion was performed in some patients at 24 hr.

[2] = system: patients with chronic neuropathic pain; assay: Prolonged infusions of ketamine without any safener drug or magnesium, patients treated in Australia; assay type: in vivo, human
Description: About 30 patients have been treated during the span of 1997 through 2002, in Australia, by one of the Inventors herein (Correll), using prolonged infusions of ketamine without any safener drug or magnesium. […] Those patients have been described in more detail in Correll et al 2004, and more current information on the duration of remission are provided in FIGS. 1 and 2 of that report. That report is not prior art against this invention.

[3] = system: patients with post-herpetic neuralgia (shingles); assay: Ketamine treatment of patients with post-herpetic neuralgia (shingles); assay type: in vivo, human
Description: Several patients were also treated who suffered from post-herpetic neuralgia (commonly known as shingles).

[4] = Ketamine and norketamine concentrations in blood plasma during infusion; assay type: in vivo, human
Description: Blood samples were taken from each patient during his or her infusion regimen, and those samples were shipped to an analytical laboratory (National Medical Services Company, in Willow Grove, Pa.) to have their ketamine concentrations analyzed. […] In view of those data, it is believed that blood plasma concentrations of at least about 200 ng/ml (and preferably at least about 250 to about 350 ng/ml) should be regarded as target levels for effective treatments.

[5] = system: patients with post-herpetic neuralgia; settings: cited from earlier work; for patients in whom side effects were observed: single intravenous injection, of 8 patients (ketamine 0.15 mg/kg, morphine 0.075 mg/kg), Eide et al 1994
NMDA receptors = settings: cited from earlier work

CNC1(c2ccccc2Cl)CCCCC1=O (racemic) [ketamine]
reported pain level ([1]; FIG. 1 patient, baseline 8, after 24 hours of ketamine infusion (plateau)): about 1.3 | duration of apparently complete relief ([1]; FIG. 1 patient, one of four further CRPS type 1 patients): roughly six | reported pain level ([1]; FIG. 1 patient, within about 3 hours after second MgSO4 infusion commencing at 24 hours, ketamine continued): zero | duration of apparently complete remission ([1]; first patient treated in the U.S.): about 18 months | pain relief outcome ([1]; one of four further CRPS type 1 patients, appears permanent as of filing date): apparently complete relief | level to which pain returned, relative to pretreatment level ([1]; one of two patients with low ketamine plasma concentrations): roughly 50% | level to which pain returned ([1]; other of two patients with low ketamine plasma concentrations): roughly the same starting level that existed prior to treatment | overall result ([2]; ketamine alone, about 30 patients): generally good results | patients believed to remain generally pain-free or in partial remission ([2]; of about 30 patients treated 1997 through 2002, ketamine alone): more than 25 patients | outcome in certain other patients [3]: transitory and partial benefits | outcome in one patient [3]: essentially complete remission | blood plasma concentration of ketamine in the two patients without complete and long-lasting relief ([4]; did not reach or even closely approach this level): < 300 ng/mL | blood plasma concentration of ketamine that appeared to provide the best results ([4]; plasma, during infusion): greater than 250 ng/ml | patients in whom side effects were observed [5]: 8 patients | tolerability ([5]; subcutaneous administration over a continuous span of 7 days, 5 patients, Eide et al 1995): associated with intolerable side effects

CN1CC[C@]23c4c5ccc(O)c4O[C@H]2[C@@H](O)C=C[C@H]3[C@H]1C5 [morphine]
patients in whom side effects were observed [5]: 6 patients

NC1(c2ccccc2Cl)CCCCC1=O (stereo not shown) [norketamine]
level of norketamine in blood ([4]; one patient with return of pain): high level | effectiveness relative to ketamine in reducing pain signals (NMDA receptors): about 25% | effectiveness relative to ketamine in suppressing activity at NMDA receptors (NMDA receptors): about 25%
